The results in this text go back to patent US20160256371A1, “PHOTOSTABLE COMPOSITIONS COMPRISING PARA-ALKOXYL PHENYL SUBSTITUTED PROPENOIC ACID (APP) DERIVATIVES” (HALLSTAR INNOVATIONS CORP., priority 2015, published 2016).

The data set is described as follows: Photostability of BMDBM/OMC compositions in acetonitrile under UV irradiation, with and without APP analogue. The class given is physicochemical. Particulars: no APP. On the procedure: Comparisons were performed to evaluate the abilities of APP derivatives of Formula I, Ia, Ib, Ic, Id, Ie, If, or combination thereof to photostabilize photoactive compounds. UV light exposure is often measured in MED rather than a measurement of time. MED relates to the minimal dosage of UV exposure required to result in redness 24 hours after exposure. Although technically an individualized measurement that would vary depending on the sensitivity of an individual's skin, MED measurements have been standardized with the advent of UV bulbs and lamps. FIG. 1 illustrates the photoinstability of a composition containing BMDBM and OMC. […] Absorption was measured for wavelengths 250 nm to 500 nm in length. BMDBM absorbs wavelengths around 375 nm in length, which can be seen as a distinct peak on the line illustrating the composition which was not irradiated with UV light. […] FIG. 2 illustrates the photostabilization of a photoactive composition by the addition of an APP analogue of Formula I. […] The APP analogue was a 1:1 blend of Formula Ia and Formula Ib. […] FIG. 3 illustrates the percentage of BMDBM remaining in compositions after irradiation with 15 MED of UV light. […] The APP analogue was a 1:1 blend of Formula Ia and Formula Ib.

Take `COc1ccc(C(=O)CC(=O)c2ccc(C(C)(C)C)cc2)cc1` [BMDBM, 4-tert-butyl-4-methoxy-dibenzoylmethane]: the “BMDBM absorption peak at 375 nm after UV irradiation” value (acetonitrile solution, 10 ppm BMDBM and 10 ppm OMC, 15 MED versus 0 MED, FIG. 1) is “substantially diminished”. Besides, the “percentage of BMDBM remaining capable of absorbing light at 375 nm after irradiation” value (composition of 10 ppm BMDBM and 10 ppm OMC, 15 MED of UV light, FIG. 3) was 2.9%.
